Data set [1] can be described thus: Solubility of pimobendan in cyclodextrin solutions (FIG. 1-3). It is filed as physicochemical. The method, then:
The last row of columns represents the reference control, which is the respective solution without preservative (“none”). […] FIG. 2 is a schematic diagram wherein the solubility of pimobendan is shown as a function of type and concentration of polymer, salt or complexation agent. In order to determine the degree of complexation, the effect of three different polymers, three different salts and one chelating agent on the solubility of pimobendan was tested. The pH of the solution was 4.5. Metolose is hydroxypropyl methylcellulose=HPMC=Hypromellose. Klucel ELF is hydroxypropyl cellulose=HPC. The number after the chemical name indicates the concentration of additive in % (m/V). FIG. 3 is a schematic diagram wherein the solubility of pimobendan is shown as a function of concentration of hydroxypropyl-ß-cyclodextrin and presence of sodium sorbate and hydroxypropyl methylcellulose (HPMC). Therefore, in FIG. 3 the effect of sodium sorbate and HPMC on the solubility of pimobendan was illustrated, and also the effect of concentration of hydroxypropyl-ß-cyclodextrin on the pimobendan solubility. Concentrations of sodium sorbate of 1.0% (m/V) and of HPMC of 0.1% (m/V) were used. The pH value was set to 4.5 using hydrochloric acid in all solutions.

For data set [2] the following is noted: cited from earlier work.
The format of data set [3] is physicochemical. The method, then:
As already described in EP 0 439 030 and WO 2005/08467, pimobendan drug substance is insoluble in water: 1 g drug substance is soluble in more than 10,000 mL. At pH 7 the solubility of pimobendan is only about 0.1 mg per 100 mL.
The solubility of pimobendan in aqueous solutions is depends on the pH. […] However, the local tolerance and palatability as well as the chemical stability of such a formulation are not acceptable. This is due to the fact that the target dose would require a drug concentration in solution which can only be achieved by a pH of about pH 2.5 and lower. […] Accordingly, a pimobendan formulation comprising up to 1.5 mg/mL of pimobendan would need an increase in solubility at pH 7 by a factor of about 1000 to 1500, not achieved in prior art formulations for oral administration up to now.

For data set [4], the system named is E. coli, P. aeruginosa, S. aureus, C. albicans, A. brasiliensis. The experiment in a line: Antimicrobial efficacy, Example 3, overall evaluation of Tables 6 and 7. Type of data set: cell-based. To be noted: solutions of Table 4. An excerpt:
The testing criteria applied are those for evaluation of antimicrobial activity for oral preparations according to Pharm. Eur. 7 (tests at 14 days and 28 days). The acceptance criteria of the Ph. Eur. 7, Method 5.1.3 “Efficacy of Antimicrobial Preservation” USP 34, and Method <51> Antimicrobial Effectiveness Testing are listed in the following Table 2.

Data set [5] has as its system Zygosaccharomyces rouxii, Candida albicans and Aspergillus brasiliensis. The data set can be described thus: Efficacy of microbial preservation, Example 4, overall. The settings on record: ascorbic acid 0.20-0.70 g/100 mL with sorbic acid 0.3 g/100 mL, pH 3.5. It is filed as cell-based.

We go through 3 compounds from patent US12357696B2, “Preserved etherified cyclodextrin derivatives containing liquid aqueous pharmaceutical composition” (Boehringer Ingelheim Vetmedica GmbH, priority 2013, dated 2025).

`COc1ccc(-c2nc3ccc(C4=NNC(=O)CC4C)cc3[nH]2)cc1` (stereo not shown) [pimobendan, 4,5-dihydro-6-[2-(4-methoxyphenyl)-1H-benzimidazol-5-yl]-5-methyl-3(2H)-pyridazinone]: the “solubility of pimobendan as a function of pH value (FIG. 1)” value in data set [1] (25% (m/V) cyclodextrin, pH 3.5, 4.5, 5.5, 7, 9) is given as “highest solubility of pimobendan occurs at pH=3.5”. Moreover, the “solubility of pimobendan as a function of preservative (FIG. 1)” value in data set [1] (25% (m/V) cyclodextrin, versus reference control without preservative) was “highest pimobendan solubility is achieved with sodium sorbate”. Moreover, in data set [1] (25% (m/V) hydroxypropyl-ß- or hydroxypropyl-gamma-cyclodextrin), the “solubility of pimobendan as a function of cyclodextrin type (FIG. 1)” value is recorded as “more soluble with hydroxypropyl-ß-cyclodextrin than hydroxypropyl-gamma-cyclodextrin”. Besides, the “solubility of pimobendan in presence of HPMC (FIG. 3)” value in data set [1] (HPMC 0.1% (m/V), hydroxypropyl-ß-cyclodextrin, pH 4.5) is “significantly increases”. Also, in data set [1] (pH 4.5), the “solubility of pimobendan on addition of HPMC (FIG. 2)” value is on record as “significant increase” and the “solubility of pimobendan on addition of salts or disodium edetate (FIG. 2)” value is listed as “does not significantly increase”. In data set [1] (sodium sorbate 1.0% (m/V) and HPMC 0.1% (m/V), pH 4.5), the “solubility of pimobendan with both HPMC and sodium sorbate (FIG. 3)” value is listed as “significantly increased”. For the same compound, in data set [1] (sodium sorbate 1.0% (m/V), hydroxypropyl-ß-cyclodextrin, pH 4.5), the “solubility of pimobendan in presence of sodium sorbate (FIG. 3)” value is listed as “significantly increases”. Also, in data set [2] (pH 7), the solubility of pimobendan entry is given as “about 0.1 mg per 100 mL”. Further, the “water in which 1 g drug substance is soluble” value in data set [2] (per 1 g drug substance, water) was “more than 10,000 mL”. Moreover, the “solubility of pimobendan in aqueous solutions depending on pH” value in data set [3] is given as “significantly higher at pH 1 to 2.5 than at higher pH values”.
As for `C/C=C/C=C/C(=O)O` [sorbic acid], the “antimicrobial efficacy (overall statement on Tables 6 and 7)” value in data set [4] was “good antimicrobial efficacy”.
`O=C1O[C@H]([C@@H](O)CO)C(O)=C1O` [ascorbic acid]: the “efficacy of preservation versus concentration of antioxidant” value in data set [5] is “increasing efficacy of preservation with increasing concentration of antioxidant”.
